Measurements: the OligoGym collection
Several values for one entry are separate records, joined by “and”; a condition that tells them apart may be missing. Identical values can stand only once. HELM strings list units from the 5' end as sugar, base in round brackets, then linkage (d deoxyribose, r ribose, m 2'-O-methyl, p phosphodiester). Methylation of C is not given here. [moe] = 2'-O-(2-methoxyethyl) (MOE); [cEt] = constrained ethyl (cEt); [sp] = phosphorothioate linkage

Biological target: HBV
Details: ASO

Row | Substance | target mRNA inhibition (HepG2, 0.07 µM) | target mRNA inhibition (HepG2, 0.0092593 µM) | target mRNA inhibition (HepG2, 0.0277778 µM) | target mRNA inhibition (HepG2, 0.0833333 µM) | target mRNA inhibition (HepG2, 0.25 µM)
1 | RNA1{[moe](C)[sp].[cEt](T)[sp].[cEt](G)[sp].d(G)[sp].d(A)[sp].d(G)[sp].d(C)[sp].d(C)[sp].d(A)[sp].d(C)[sp].d(C)[sp].d(A)[sp].d(G)[sp].[cEt](C)[sp].[cEt](A)[sp].[moe](G)}$$$$V2.0 | 60% and 45% |  |  |  | 
2 | RNA1{[moe](C)[sp].[moe](A)[sp].[moe](A)[sp].[moe](T)[sp].d(T)[sp].d(T)[sp].d(A)[sp].d(T)[sp].d(G)[sp].d(C)[sp].d(C)[sp].d(T)[sp].d(A)[sp].[moe](C)[sp].[moe](A)[sp].[moe](G)[sp].[moe](C)}$$$$V2.0 | 34% and 25% |  |  |  | 
3 | RNA1{[moe](C)[sp].[moe](A)[sp].[moe](C)[sp].[moe](T)[sp].[moe](A)[sp].[moe](G)[sp].d(T)[sp].d(A)[sp].d(A)[sp].d(A)[sp].d(C)[sp].d(T)[sp].d(G)[sp].d(A)[sp].d(G)[sp].[moe](C)[sp].[moe](C)}$$$$V2.0 | 87% and 72% | 12% | 40% | 42% | 65%
4 | RNA1{[moe](C)[sp].[moe](A)[sp].[moe](C)[sp].[moe](T)[sp].d(A)[sp].d(G)[sp].d(T)[sp].d(A)[sp].d(A)[sp].d(A)[sp].d(C)[sp].d(T)[sp].d(G)[sp].[moe](A)[sp].[moe](G)[sp].[moe](C)}$$$$V2.0 | 56% and 50% |  |  |  | 
5 | RNA1{[moe](C)[sp].[moe](A)[sp].[moe](G)[sp].[moe](A)[sp].[moe](G)[sp].[moe](G)[sp].d(T)[sp].d(G)[sp].d(A)[sp].d(A)[sp].d(G)[sp].d(C)[sp].d(G)[sp].d(A)[sp].d(A)[sp].[moe](G)[sp].[moe](T)}$$$$V2.0 | 81% and 58% |  |  |  | 
6 | RNA1{[moe](C)[sp].[moe](A)[sp].[moe](G)[sp].[moe](A)[sp].d(G)[sp].d(G)[sp].d(T)[sp].d(G)[sp].d(A)[sp].d(A)[sp].d(G)[sp].d(C)[sp].d(G)[sp].[moe](A)[sp].[moe](A)[sp].[moe](G)}$$$$V2.0 | 47% and 50% |  |  |  | 
7 | RNA1{[moe](C)[sp].[moe](A)[sp].d(A)[sp].d(T)[sp].d(T)[sp].d(T)[sp].d(A)[sp].d(T)[sp].d(G)[sp].d(C)[sp].d(C)[sp].[moe](T)[sp].[moe](A)[sp].[moe](C)[sp].[moe](A)[sp].[moe](G)}$$$$V2.0 | 27% and 25% |  |  |  | 
8 | RNA1{[moe](C)[sp].[moe](A)[sp].d(C)[sp].d(T)[sp].d(A)[sp].d(G)[sp].d(T)[sp].d(A)[sp].d(A)[sp].d(A)[sp].d(C)[sp].[moe](T)[sp].[moe](G)[sp].[moe](A)[sp].[moe](G)[sp].[moe](C)[sp].[moe](C)}$$$$V2.0 | 73% and 66% |  |  |  | 
9 | RNA1{[moe](C)[sp].[moe](A)[sp].d(C)[sp].d(T)[sp].d(A)[sp].d(G)[sp].d(T)[sp].d(A)[sp].d(A)[sp].d(A)[sp].d(C)[sp].[moe](T)[sp].[moe](G)[sp].[moe](A)[sp].[moe](G)[sp].[moe](C)}$$$$V2.0 | 52% and 53% |  |  |  | 
10 | RNA1{[moe](C)[sp].[moe](A)[sp].d(G)[sp].d(A)[sp].d(G)[sp].d(G)[sp].d(T)[sp].d(G)[sp].d(A)[sp].d(A)[sp].d(G)[sp].[moe](C)[sp].[moe](G)[sp].[moe](A)[sp].[moe](A)[sp].[moe](G)}$$$$V2.0 | 35% and 36% |  |  |  | 
11 | RNA1{[moe](C)[sp].[moe](C)[sp].[moe](A)[sp].[moe](C)[sp].[moe](T)[sp].d(G)[sp].d(A)[sp].d(A)[sp].d(C)[sp].d(A)[sp].d(A)[sp].d(A)[sp].d(T)[sp].d(G)[sp].[moe](G)[sp].[moe](C)}$$$$V2.0 | 55% and 44% |  |  |  | 
12 | RNA1{[moe](C)[sp].[moe](C)[sp].[moe](A)[sp].[moe](C)[sp].d(T)[sp].d(G)[sp].d(A)[sp].d(A)[sp].d(C)[sp].d(A)[sp].d(A)[sp].d(A)[sp].d(T)[sp].[moe](G)[sp].[moe](G)[sp].[moe](C)}$$$$V2.0 | 57% and 68% |  |  |  | 
13 | RNA1{[moe](C)[sp].[moe](C)[sp].[moe](A)[sp].d(A)[sp].d(T)[sp].d(T)[sp].d(T)[sp].d(A)[sp].d(T)[sp].d(G)[sp].d(C)[sp].d(C)[sp].d(T)[sp].[cEt](A)[sp].[cEt](C)[sp].[cEt](A)}$$$$V2.0 | 37% and 34% |  |  |  | 
14 | RNA1{[moe](C)[sp].[moe](C)[sp].[moe](G)[sp].[moe](C)[sp].[moe](A)[sp].d(G)[sp].d(T)[sp].d(A)[sp].d(T)[sp].d(G)[sp].d(G)[sp].d(A)[sp].d(T)[sp].d(C)[sp].[moe](G)[sp].[moe](G)[sp].[moe](C)}$$$$V2.0 | 86% and 76% | 5% | 38% | 65% | 86%
15 | RNA1{[moe](C)[sp].[moe](C)[sp].[moe](G)[sp].[moe](C)[sp].d(A)[sp].d(G)[sp].d(T)[sp].d(A)[sp].d(T)[sp].d(G)[sp].d(G)[sp].d(A)[sp].d(T)[sp].[moe](C)[sp].[moe](G)[sp].[moe](G)[sp].[moe](C)}$$$$V2.0 | 87% and 74% | 0% | 38% | 69% | 86%
16 | RNA1{[moe](C)[sp].[moe](C)[sp].[moe](G)[sp].[moe](C)[sp].d(A)[sp].d(G)[sp].d(T)[sp].d(A)[sp].d(T)[sp].d(G)[sp].d(G)[sp].d(A)[sp].d(T)[sp].[moe](C)[sp].[moe](G)[sp].[moe](G)}$$$$V2.0 | 76% and 71% |  |  |  | 
17 | RNA1{[moe](C)[sp].[moe](C)[sp].[moe](G)[sp].d(C)[sp].d(A)[sp].d(G)[sp].d(T)[sp].d(A)[sp].d(T)[sp].d(G)[sp].d(G)[sp].d(A)[sp].[moe](T)[sp].[moe](C)[sp].[moe](G)[sp].[moe](G)}$$$$V2.0 | 75% and 76% | 0% | 23% | 56% | 79%
18 | RNA1{[moe](C)[sp].[moe](G)[sp].[moe](A)[sp].d(A)[sp].d(C)[sp].d(C)[sp].d(A)[sp].d(C)[sp].d(T)[sp].d(G)[sp].d(A)[sp].d(A)[sp].[moe](C)[sp].[moe](A)[sp].[moe](A)[sp].[moe](A)}$$$$V2.0 | 48% and 28% |  |  |  | 
19 | RNA1{[moe](C)[sp].[moe](G)[sp].[moe](G)[sp].[moe](G)[sp].d(C)[sp].d(A)[sp].d(A)[sp].d(C)[sp].d(A)[sp].d(T)[sp].d(A)[sp].d(C)[sp].d(C)[sp].[moe](T)[sp].[moe](T)[sp].[moe](G)}$$$$V2.0 | 48% and 65% |  |  |  | 
20 | RNA1{[moe](C)[sp].[moe](G)[sp].[moe](T)[sp].[moe](G)[sp].[moe](C)[sp].[moe](A)[sp].d(G)[sp].d(A)[sp].d(G)[sp].d(G)[sp].d(T)[sp].d(G)[sp].d(A)[sp].d(A)[sp].d(G)[sp].[moe](C)[sp].[moe](G)}$$$$V2.0 | 81% and 64% |  |  |  | 
21 | RNA1{[moe](C)[sp].[moe](G)[sp].[moe](T)[sp].d(G)[sp].d(C)[sp].d(A)[sp].d(G)[sp].d(A)[sp].d(G)[sp].d(G)[sp].d(T)[sp].d(G)[sp].d(A)[sp].[cEt](A)[sp].[cEt](G)[sp].[cEt](C)}$$$$V2.0 | 72% and 60% |  |  |  | 
22 | RNA1{[moe](C)[sp].[moe](G)[sp].d(A)[sp].d(A)[sp].d(C)[sp].d(C)[sp].d(A)[sp].d(C)[sp].d(T)[sp].d(G)[sp].d(A)[sp].[moe](A)[sp].[moe](C)[sp].[moe](A)[sp].[moe](A)[sp].[moe](A)[sp].[moe](T)}$$$$V2.0 | 55% and 36% |  |  |  | 
23 | RNA1{[moe](C)[sp].[moe](G)[sp].d(A)[sp].d(A)[sp].d(C)[sp].d(C)[sp].d(A)[sp].d(C)[sp].d(T)[sp].d(G)[sp].d(A)[sp].[moe](A)[sp].[moe](C)[sp].[moe](A)[sp].[moe](A)[sp].[moe](A)}$$$$V2.0 | 37% and 23% |  |  |  | 
24 | RNA1{[moe](C)[sp].[moe](G)[sp].d(C)[sp].d(A)[sp].d(G)[sp].d(T)[sp].d(A)[sp].d(T)[sp].d(G)[sp].d(G)[sp].d(A)[sp].[moe](T)[sp].[moe](C)[sp].[moe](G)[sp].[moe](G)[sp].[moe](C)}$$$$V2.0 | 76% and 71% | 6% | 31% | 56% | 80%
25 | RNA1{[moe](C)[sp].[moe](T)[sp].[moe](A)[sp].[moe](G)[sp].d(T)[sp].d(A)[sp].d(A)[sp].d(A)[sp].d(C)[sp].d(T)[sp].d(G)[sp].d(A)[sp].d(G)[sp].[moe](C)[sp].[moe](C)[sp].[moe](A)}$$$$V2.0 | 66% and 65% |  |  |  | 
26 | RNA1{[moe](C)[sp].[moe](T)[sp].[moe](G)[sp].d(A)[sp].d(A)[sp].d(C)[sp].d(A)[sp].d(A)[sp].d(A)[sp].d(T)[sp].d(G)[sp].d(G)[sp].d(C)[sp].[cEt](A)[sp].[cEt](C)[sp].[cEt](T)}$$$$V2.0 | 64% and 74% |  |  |  | 
27 | RNA1{[moe](G)[sp].[cEt](A)[sp].[cEt](G)[sp].d(A)[sp].d(G)[sp].d(A)[sp].d(A)[sp].d(G)[sp].d(T)[sp].d(C)[sp].d(C)[sp].d(A)[sp].d(C)[sp].[cEt](C)[sp].[cEt](A)[sp].[moe](C)}$$$$V2.0 | 65% and 63% |  |  |  | 
28 | RNA1{[moe](G)[sp].[cEt](A)[sp].[cEt](G)[sp].d(G)[sp].d(C)[sp].d(C)[sp].d(C)[sp].d(A)[sp].d(C)[sp].d(T)[sp].d(C)[sp].d(C)[sp].d(C)[sp].[cEt](A)[sp].[cEt](T)[sp].[moe](A)}$$$$V2.0 |  | 29% | 63% | 87% | 85%
29 | RNA1{[moe](G)[sp].[cEt](A)[sp].[cEt](G)[sp].d(G)[sp].d(T)[sp].d(G)[sp].d(A)[sp].d(A)[sp].d(G)[sp].d(C)[sp].d(G)[sp].d(A)[sp].d(A)[sp].[cEt](G)[sp].[cEt](T)[sp].[moe](G)}$$$$V2.0 | 71% |  |  |  | 
30 | RNA1{[moe](G)[sp].[cEt](A)[sp].d(A)[sp].d(C)[sp].d(C)[sp].d(A)[sp].d(C)[sp].d(T)[sp].d(G)[sp].d(A)[sp].d(A)[sp].d(C)[sp].[cEt](A)[sp].[moe](A)[sp].[cEt](A)[sp].[moe](T)}$$$$V2.0 | 49% and 43% |  |  |  | 
